Test results reported in US9598686B2, “Use of Galerina marginata genes and proteins for peptide production” (Board of Trustees of Michigan State University, priority 2007, dated 2017).
*1 amine or outer side, *2 acyl side, *3 side chain or, on linkers, in order; H or OH if unused. Where a SMILES comes first, the peptide text is derived from it. Bridges are numbered along the chain shown (N, C = ends). [ ]: non-standard residue; d: D form. Trp(2-SH) = 2-mercapto-L-tryptophan, O=C([C@H](Cc1c(S[*:3])[nH]c2ccccc12)N[*:1])[*:2]; Trp(2-yl) = O=C([C@H](Cc1c([*:3])[nH]c2ccccc12)N[*:1])[*:2]; Leu(4R-OH,5-OH) = C[C@](O)(CO)C[C@H](N)C(=O)O; Leu(4,5-diOH) = 4,5-dihydroxy-L-leucine; cisHyp = O=C(O)[C@@H]1C[C@H](O)CN1

How the values were obtained:
[1] = parenteral: inhalation, intravenous or intramuscular injection; cited from earlier work
[2] = oral; cited from earlier work
[3] = tested on: POPB (prolyl oligopeptidase) purified from Conocybe albipes; assay: cleavage of synthetic model toxin propeptides by purified POP, reverse phase HPLC and MS; type: biochemical; conditions: products confirmed by MS/MS
Description: The responsible enzyme was purified. Specifically, Conocybe mushrooms were freeze-dried, ground in buffer, and the extracts concentrated by ammonium sulfate precipitation. After desalting, the proteins were fractionated by anion exchange high-performance liquid chromatography (or high pressure liquid chromatography, HPLC).
Fractions containing peptides were assayed using Z-Gly-Pro-pNA and the model phallacidin substrate. Reaction products were separated by reverse phase HPLC (FIG. 20). In some experiments the HPLC eluant was analyzed by MS, while in other cases the peaks of UV absorption were collected and analyzed by MS in the inventors lab and the central LC/MS facility, in particular for long HPLC run times. […] PepSeq within the MassLynx program was used to determine peptide sequences. The peptides eluting from HPLC were monitored at 280 nm.
Confirmation of reaction product structures was accomplished by MS/MS.

human = conditions: cited from earlier work

Molecule | toxicity when administered parenterally [1] | absorption by the mammalian digestive tract [2] | cleavage by purified POP at flanking Pro residues [3] | further results
C[C@@H]1NC(=O)[C@H](C[C@@](C)(O)CO)NC(=O)[C@@H]2Cc3c([nH]c4ccccc34)SC[C@H](NC(=O)[C@@H]([C@H](C)O)NC1=O)C(=O)N1C[C@@H](O)C[C@H]1C(=O)N[C@@H](C)C(=O)N2 [phalloidin, cyclic (L-alanyl-D-threonyl-L-cysteinyl-cis-4-hydroxy-L-prolyl-L-alanyl-2-mercapto-L-tryptophyl-4,5-dihydroxy-L-leucyl), cyclic (3,6)-sulfide] (cyclo(A[dT]C[cisHyp]A[Trp(2-yl)][Leu(4R-OH,5-OH)]); thioether 3-6) | poisonous | do not appear to be absorbed | – | –
ATRLPAWLVDCPCVGDD [synthetic phallacidin precursor] | – | – | cut | –
ATRLPIWGIGCNPCVGDD [synthetic amanitin precursor] | – | – | cut | –
MSDINATRLPAWLATCPCAGDD [synthetic phalloidin peptide, synthesized model peptide mimicking the phalloidin proprotein] | – | – | cuts | –
cyclic (L-alanyl-2-mercapto-L-tryptophyl-4,5-dihydroxy-L-leucyl-L-valyl-er-ythro-3-hydroxy-D-alpha-aspartyl-cysteinyl-cis-4-hydroxy-L-prolyl)cyclic (2-6)-sulfide (cyclo(A[Trp(2-SH)][Leu(4,5-diOH)]VDC[cisHyp]); thioether 2-6; not fully specified (residue 5)) [phallacidin] | poisonous | do not appear to be absorbed | – | –
cyclic (L-asparaginyl-4-hydroxy-L-prolyl-(R)-4,5-dihydroxy-L-isoleucyl-6-hydroxy-2-mercapto-L-tryptophylglycyl-L-isoleucylglycyl-L-cysteinyl), cyclic (4-8)-sulfide, (R)—S-oxide [α-amanitin] | – | – | – | fatal dose (human; fatal for at least 50% of people weighing approximately 100-110 kgs, amount one mature mushroom can contain): 10 to 12 mg; human LD50 (human; human): approximately 0.1 mg/kg
